Data on 19 compounds can be found in patent US7622471B2, “Pyrazole derivatives having a pyridazine and pyridine functionality” (Daiichi Pharmaceutical Co., Ltd., priority 2003, dated 2009).

For series [1] the following is noted: not dose-dependent; cited from earlier work.
In series [2] the test system is collagen-induced platelet aggregation. The following applies: prior-art compound, cited from earlier work.
The target of series [3] is T1, cyclooxygenase-1 (COX-1) (Ovis aries, UniProt P05979).
T1 construct: purchased Cayman Chemical Company 560101 and 560121
T1 sequence (P05979 25-600): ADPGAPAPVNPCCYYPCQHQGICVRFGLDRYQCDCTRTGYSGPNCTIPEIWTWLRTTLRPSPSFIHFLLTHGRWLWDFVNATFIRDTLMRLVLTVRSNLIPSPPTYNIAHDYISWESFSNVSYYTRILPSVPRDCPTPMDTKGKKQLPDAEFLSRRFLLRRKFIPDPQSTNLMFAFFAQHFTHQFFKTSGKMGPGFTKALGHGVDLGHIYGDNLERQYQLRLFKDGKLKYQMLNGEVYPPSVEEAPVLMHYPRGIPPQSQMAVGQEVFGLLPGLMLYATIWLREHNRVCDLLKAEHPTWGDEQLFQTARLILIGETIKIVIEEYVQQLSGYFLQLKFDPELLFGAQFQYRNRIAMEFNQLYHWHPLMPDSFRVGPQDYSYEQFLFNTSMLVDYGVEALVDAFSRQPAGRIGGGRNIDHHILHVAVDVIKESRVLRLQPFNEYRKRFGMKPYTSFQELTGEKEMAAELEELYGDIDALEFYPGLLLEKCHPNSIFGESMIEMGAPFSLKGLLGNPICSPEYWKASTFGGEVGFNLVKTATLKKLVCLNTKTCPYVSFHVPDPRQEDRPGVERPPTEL
Description: Inhibitory effect on COX-1 (COX Inhibitor Screening Assay Kit, PGF2α ELISA). In kind it is biochemical. The following applies: 50 μM compound. On the procedure:
(§1) Inhibitory activity against COX-1 and COX-2 of the compounds produced in the Examples was measured using a COX Inhibitor Screening Assay Kit (product of Cayman Chemical Company, Catalog Nos. 560101 and 560121).
(§2) Before starting the measurement, reaction buffer, heme, arachidonic acid, SnCl2, EIA buffer, washing buffer, prostaglandin (PG) screening EIA standard, PG screening acetylcholine esterase (AchE), tracer (chromogenic enzyme […] conjugate), and PG screening EIA antiserum were prepared ready for use.
(§3) (1) Production of PGF2α in the Presence of COX-1 or COX-2
(§4) A reaction mixture containing the compound of the Examples (50 μM) and COX-1 or COX-2 was incubated at 37° C. for 10 minutes. Arachidonic acid (10 μL) was added thereto, and the resultant mixture was further incubated at 37° C. for 2 minutes. 1N-Hydrochloric acid (50 μL) was added to the reaction mixture, to thereby stop the reaction. SnCl2 solution (100 μL) was added thereto, and the resultant mixture was kept at room temperature for 5 minutes.
(§5) (2) Quantitative Determination of PGF2α through ELISA
(§6) Antiserum (rabbit anti-PGF2αantibody, 50 μL) was added to the wells of 96 well plate that had been coated with mouse anti-rabbit IgG. A solution of PGF2α-containing mixture obtained above (2000-fold dilution, 50 μL) and AchE tracer (50 μL) were added to the well in this order, and the mixture was incubated at room temperature for 18 hours. The wells were washed 5 times with the washing buffer to remove an excessive AchE tracer, and Ellman reagent (200 μL) was added. After keeping the plate in a dark room for 60 minutes, absorbance at 405 nm was measured.
(§7) (3) Calculation of Inhibitory Activity of the Compound of the Examples
(§8) A calibration curve was obtained by use of the PG screening EIA standard, and the production amount of PGF2α was determined from the absorbance. Percent inhibition of COX-1 or COX-2 activity at 50 μM of the compound of the Examples was calculated.
A general note: An ELISA detects its analyte on a solid surface through an enzyme-linked reagent.

For series [4], the system named is collagen-induced platelet aggregation. Kind of series: Platelet aggregation-inhibiting action (collagen-induced aggregation of human platelet rich plasma). In kind it is cell-based. The following applies: human PRP, read-out: Inhibition of collagen-induced platelet aggregation, IC50. On the procedure:
Human blood was collected in the presence of 3.13% sodium citrate as an anticoagulant in a volume 1/10 the blood volume. The collected blood was centrifuged at 180 g for 10 minutes so as to separate the upper layer; i.e., platelet rich plasma (PRP) from the blood. The remaining lower layer was further centrifuged at 1600 g for 10 minutes, and platelet poor plasma (PPP); i.e., the thus-obtained upper layer, was collected. A solution (1 μL) of the inventive compound was added to PRP (200 μL), and the mixture was allowed to stand at 37° C. for 2 minutes. Subsequently, collagen (2 μL) was added to the resultant mixture so as to induce platelet aggregation. Percent platelet aggregation was measured by means of PAM-12C(SSR Engineering). Optical transmittance of PPP was employed as the value reflecting the state in which 100% coagulation occurred. Percent platelet aggregation values of PRP were determined at a series of concentrations of each Example compound. From the determined values, IC50 with respect to each compound was calculated.

Series [5] concerns the target T2, cyclooxygenase-2 (COX-2) (Homo sapiens, UniProt P35354).
T2 construct: purchased Cayman Chemical Company 560101 and 560121
T2 sequence (P35354 18-604): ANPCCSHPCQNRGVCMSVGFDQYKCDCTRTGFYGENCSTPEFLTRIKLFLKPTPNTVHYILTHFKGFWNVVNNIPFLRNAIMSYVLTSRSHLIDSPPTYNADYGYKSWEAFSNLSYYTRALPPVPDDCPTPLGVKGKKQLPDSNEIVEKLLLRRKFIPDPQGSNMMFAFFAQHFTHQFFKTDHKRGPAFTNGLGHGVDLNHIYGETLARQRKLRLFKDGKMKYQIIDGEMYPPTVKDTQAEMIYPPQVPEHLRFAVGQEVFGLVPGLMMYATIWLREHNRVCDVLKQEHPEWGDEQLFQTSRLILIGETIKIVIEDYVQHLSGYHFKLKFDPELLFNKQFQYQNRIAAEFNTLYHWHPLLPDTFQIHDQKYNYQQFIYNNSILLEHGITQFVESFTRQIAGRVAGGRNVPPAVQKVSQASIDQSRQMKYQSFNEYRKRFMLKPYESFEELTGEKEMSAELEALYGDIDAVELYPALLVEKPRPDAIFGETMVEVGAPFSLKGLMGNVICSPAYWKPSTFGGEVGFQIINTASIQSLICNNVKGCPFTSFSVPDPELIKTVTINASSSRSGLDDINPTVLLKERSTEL
Kind of series: Inhibitory effect on COX-2 (COX Inhibitor Screening Assay Kit, PGF2α ELISA). The following applies: 50 μM compound. In kind it is biochemical. On the procedure: as §1, §2, §3, §4, §5, §6, §7, §8

Like-named read-outs stand apart in the source and are kept apart here.

As to `CC(=O)Oc1ccccc1C(=O)O` [Aspirin], the “rate of side effects such as hemorrhage in gastrointestine (aspirin-induced ulcer)” value in series [1] is recorded as “about 1 per 100 patients”.

By IC50 is commonly meant the concentration that inhibits the measured activity by half. Regarding `CS(=O)(=O)c1ccc(-c2cc(C#N)nn2-c2ccc(F)cc2)cc1` [Compound (A)], the IC50 in series [2] (read-out: IC50 value against collagen-induced platelet aggregation) was 5300 nM.

As to `COc1ccc(-n2nc(C(=O)N3CCN(C)C(=O)C3)cc2-c2ccccn2)cn1` [Example 23, 1-[1-(6-Methoxy-3-pyridyl)-5 (2-pyridyl)pyrazole-3-carbonyl]-4-methyl-3-oxopiperazine], the “Inhibitory effect against COX-1 at 50 μM (% inhibition)” value in series [3] is listed as −1.2 % inhibition. Besides, in series [4], the IC50 amounted to 170 nM. The “Inhibitory effect against COX-2 at 50 μM (% inhibition)” value in series [5] came to 3.4 % inhibition.

In the case of `COc1ccnc(-c2cc(C(=O)N3CCN(C)CC3)nn2-c2ccc(OC)nc2)c1` [Example 27, 1-[1-(6-Methoxy-3-pyridyl)-5-(4-methoxy-2-pyridyl)pyrazole-3-carbonyl]-4-methylpiperazine], in series [3], the “Inhibitory effect against COX-1 at 50 μM (% inhibition)” value came to 0.5 % inhibition. For the same compound, the IC50 in series [4] was found to be 270 nM. Also, the “Inhibitory effect against COX-2 at 50 μM (% inhibition)” value in series [5] is −0.1 % inhibition.

Take `COc1ccc(-n2nc(C(=O)N3CCOCC3)cc2-c2ccccn2)cn1` [Example 36, 4-[1-(6-Methoxy-3-pyridyl)-5-(2-pyridyl)pyrazole-3-carbonyl]morpholine]: the IC50 in series [4] amounted to 140 nM.

As for `COc1ccc(-n2nc(C(=O)N3CCN(C4CC4)CC3)cc2-c2ccccn2)cn1` [Example 55, 1-[1-(6-Methoxy-3-pyridyl)-5-(2-pyridyl)pyrazole-3-carbonyl]-4-cyclopropylpiperazine], the IC50 in series [4] was 35 nM.

With `COc1ccc(-n2nc(C(=O)N3CCN(C)CC3)cc2-c2ccccc2)cn1` [Example 62, 1-[1-(6-Methoxy-3-pyridyl)-5-phenylpyrazole-3-carbonyl]-4-methylpiperazine], the “Inhibitory effect against COX-1 at 50 μM (% inhibition)” value in series [3] is listed as −2.4 % inhibition. In addition, in series [4], the IC50 was 120 nM. In series [5], the “Inhibitory effect against COX-2 at 50 μM (% inhibition)” value is given as −2.6 % inhibition.

In the case of `COc1ccc(-n2nc(C(=O)N3CC(N(C)C)C3)cc2-c2ccccc2)cn1` [Example 70, 1-[1-(6-Methoxy-3-pyridyl)-5-phenylpyrazole-3-carbonyl]-3-dimethylaminoazetidine], the IC50 in series [4] is 260 nM.

Turning to `COc1ccc(-n2nc(C(=O)N3CCCCC3)cc2-c2ccccn2)nn1` [Example 122, 1-[1-(6-Methoxy-3-pyridazinyl)-5-(2-pyridyl)pyrazole-3-carbonyl] piperidine], in series [3], the “Inhibitory effect against COX-1 at 50 μM (% inhibition)” value is reported as 1 % inhibition. Besides, the IC50 in series [4] was 750 nM. Moreover, the “Inhibitory effect against COX-2 at 50 μM (% inhibition)” value in series [5] was 4.5 % inhibition.

Consider `COc1ccc(-n2nc(C(=O)N3CCN(C)CC3)cc2-c2ccccn2)nn1` [Example 132, 1-[1-(6-Methoxy-3-pyridazinyl)-5-(2-pyridyl)pyrazole-3-carbonyl]-4-methylpiperazine], for which the “Inhibitory effect against COX-1 at 50 μM (% inhibition)” value in series [3] is listed as 2.7 % inhibition. Further, the IC50 in series [4] came to 400 nM. Moreover, the “Inhibitory effect against COX-2 at 50 μM (% inhibition)” value in series [5] is on record as 10.5 % inhibition.

Regarding `COc1ccc(-n2nc(C(=O)N3CCC(F)(F)CC3)cc2-c2ccccn2)nn1` [Example 139, 1-[1-(6-Methoxy-3-pyridazinyl)-5-(2-pyridyl)pyrazole-3-carbonyl]-4,4-difluoropiperidine], the “Inhibitory effect against COX-1 at 50 μM (% inhibition)” value in series [3] is recorded as 7.6 % inhibition. The IC50 in series [4] was determined as 42 nM. Further, in series [5], the “Inhibitory effect against COX-2 at 50 μM (% inhibition)” value was 3.4 % inhibition.

In the case of `COc1ccc(-n2nc(C(=O)N3CCCC(F)(F)C3)cc2-c2ccccn2)nn1` [Example 140, 1-[1-(6-Methoxy-3-pyridazinyl)-5-(2-pyridyl)pyrazole-3-carbonyl]-3,3-difluoropiperidine], the IC50 in series [4] came out at 110 nM.

As for `COc1cnc(-n2nc(C(=O)N3CCN(C)CC3)cc2-c2ccccn2)cn1` [Example 144, 1-[1-(5-Methoxy-2-pyrazinyl)-5-(2-pyridyl)pyrazole-3-carbonyl]-4-methylpiperazine], the “Inhibitory effect against COX-1 at 50 μM (% inhibition)” value in series [3] is 9.7 % inhibition. The IC50 in series [4] amounted to 440 nM. Moreover, the “Inhibitory effect against COX-2 at 50 μM (% inhibition)” value in series [5] was 8.8 % inhibition.

For `COc1ccc(-n2nc(C(=O)N3CCN(C)CC3)cc2-c2cnccn2)cn1` [Example 148, 1-[1-(6-Methoxy-3-pyridyl)-5-(2-pyrazinyl)pyrazole-3-carbonyl]-4-methylpiperazine], the IC50 in series [4] came to 90 nM.

In the case of `COc1ccc(-n2nc(C(=O)N3CCCOCC3)cc2-c2ccccn2)cn1` [Example 160, 4-[1-(6-Methoxy-3-pyridyl)-5-(2-pyridyl)pyrazole-3-carbonyl]-1,4-oxazepane], the IC50 in series [4] is 170 nM.

Consider `COc1ccc(-n2nc(C(=O)N3CCCCN3C(C)=O)cc2-c2ccccn2)cn1` [Example 163, 1-[1-(6-Methoxy-3-pyridyl)-5-(2-pyridyl)pyrazole-3-carbonyl]-2-acetylhexahydropyridazine], for which, in series [4], the IC50 came to 90 nM.

For the compound `COc1ccc(-n2nc(C(=O)N3CCN(C)CC3)cc2-c2ccc[nH]2)cn1` [Example 167, 1-[1-(6-Methoxy-3-pyridyl)-5-(pyrrol-2-yl)pyrazole-3-carbonyl]-4-methylpiperazine], the IC50 in series [4] was 29 nM.

Take `COc1ccc(-n2nc(C(=O)N3CCOCC3)cc2-c2ccc[nH]2)cn1` [Example 168, 4-[1-(6-Methoxy-3-pyridyl)-5-(pyrrol-2-yl)pyrazole-3-carbonyl]morpholine]: the IC50 in series [4] turned out to be 17 nM.

Consider `COc1ccc(-c2cc(C(F)F)nn2-c2ccc(S(N)(=O)=O)cc2)cc1F` [compound (B)], for which, in series [2] (in words), the “platelet aggregation inhibitory activity compared with inhibitory activity against COX-2” value is on record as “not so potent”.
